A word on the IC50: it is the midpoint of a concentration-inhibition curve. A high value points to a need for much substance. In general, melting point refers to the temperature, or range, at which the solid turns liquid.

The text below walks through data of patent US8580790B2, “(Heterocycle/condensed piperidine)-(piperazinyl)-1-alkanone or (heterocycle/condensed pyrrolidine)-(piperazinyl)-1-alkanone derivatives and use thereof as p75 inhibitors” (Sanofi, priority 2009, dated 2013).

Each structure is given as a SMILES string.

The target of the first series is T1, human p75^NTR receptor (Homo sapiens, UniProt P08138).
T1 construct: the whole form of the human p75^NTR receptor; expressed in transfected cells; the soluble AP fusion comes from the supernatant of transiently transfected HEK293 cells
T1 sequence (P08138 29-427): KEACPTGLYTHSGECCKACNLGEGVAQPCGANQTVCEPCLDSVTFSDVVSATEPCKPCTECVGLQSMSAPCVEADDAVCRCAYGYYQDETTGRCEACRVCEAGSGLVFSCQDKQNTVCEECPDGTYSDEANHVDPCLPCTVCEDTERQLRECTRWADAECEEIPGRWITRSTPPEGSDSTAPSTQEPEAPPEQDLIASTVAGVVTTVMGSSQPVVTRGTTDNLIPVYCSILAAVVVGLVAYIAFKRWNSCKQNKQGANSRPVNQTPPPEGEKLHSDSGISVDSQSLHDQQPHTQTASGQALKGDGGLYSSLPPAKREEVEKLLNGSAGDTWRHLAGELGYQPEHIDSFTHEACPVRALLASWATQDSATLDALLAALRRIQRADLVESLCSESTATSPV
Description: Dimerization of the p75NTR receptor independently of its ligand (soluble p75NTR-alkaline phosphatase binding to SK-N-BE Bep 75 cells). It is filed as cell-based. Particulars: soluble p75NTR-alkaline phosphatase 10 nM, 1 h preincubation at 37° C. On the procedure:
The SK-N-BE parent strain (human neuroblastoma) and the Bep 75 clone, stably expressing the whole form of the human p75^NTR receptor (SK-N-BE Bep 75) are cultured conventionally in an RPMI culture medium containing FCS (5%), sodium pyruvate (1 mM) and glutamine (4 mM). For the SK-N-BE Bep 75 cells, hygromycin ([…] of medium) is added as selection agent.
Study of the dimerization of the p75^NTR receptor independently of its ligand.
The p75^NTR receptor dimerization study is carried out on a cell suspension of the SK-N-BE Bep 75 strain. The cells (2.5×10^4 cells/well) are placed in wells (96-well plate) for 24 h, and then preincubated for 1 h at 37° C. in the presence or absence of the compounds according to the invention. Supernatant is then added, this supernatant being derived from the culture of HEK293 human cells of renal origin expressing, after 48 h of transfection, and secreting a soluble form of the p75^NTR receptor (extracellular part of the receptor) coupled to an alkaline phosphatase, at the final concentration of 10 nM. The quantification of the specific binding of the soluble p75^NTR receptor to the receptor present on SK-N-BE Bep 75 cells is determined by measuring the alkaline phosphatase enzyme activity after incubation of the cells for 1 hour at 37° C. in the presence of the supernatant. After filtration and transfer of the filters into 24-well plates, the alkaline phosphatase activity is determined by adding CDP-Star chemiluminescent substrate (ready-to-use, Roche). The concentrations inhibiting 50% (Cl50) of the dimerization of the p75^NTR receptor, of the compounds according to the invention, are low and range from 10^−6 to 10^−11M.
Compound `COC(=O)c1ccc(N2C3CCC2CN(CC(=O)N2CCc4nn(-c5ccccc5)cc4C2)C3)nc1` [compound 19, 6-{3-[2-oxo-2-(2-phenyl-2,4,6,7-tetrahydropyrazolo[4,3-c]pyridin-5-yl)ethyl]-3,8-diazabicyclo[3.2.1]oct-8-yl}nicotinic acid methyl ester] registered an IC50 of 14 nM.
Compound `O=C(O)c1ccc(N2C3CCC2CN(CC(=O)N2CCc4nn(-c5ccccc5)cc4C2)C3)nc1` [compound 24, 6-{3-[2-oxo-2-(2-phenyl-2,4,6,7-tetrahydropyrazolo[4,3-c]pyridin-5-yl)ethyl]-3,8-diazabicyclo[3.2.1]oct-8-yl}nicotinic acid] gave an IC50 of 1.55 nM.

Test system in a further series: not given
Experiment: not given
Conditions: not given
Compound `COC(=O)c1ccc(N2C3CCC2CN(CC(=O)N2CCc4nn(-c5ccccc5)cc4C2)C3)nc1` [compound 19, 6-{3-[2-oxo-2-(2-phenyl-2,4,6,7-tetrahydropyrazolo[4,3-c]pyridin-5-yl)ethyl]-3,8-diazabicyclo[3.2.1]oct-8-yl}nicotinic acid methyl ester] came in with a melting point of 204 to 205 °C.
On the same count and under the same terms, under `O=C(O)c1ccc(N2C3CCC2CN(CC(=O)N2CCc4nn(-c5ccccc5)cc4C2)C3)nc1` [compound 24, 6-{3-[2-oxo-2-(2-phenyl-2,4,6,7-tetrahydropyrazolo[4,3-c]pyridin-5-yl)ethyl]-3,8-diazabicyclo[3.2.1]oct-8-yl}nicotinic acid] stands 202 to 206 °C; under `O=C(CN1CCN(c2cccc(Cl)n2)CC1)N1CCc2nn(-c3ccccc3)cc2C1` [compound 114, 2-[4-(6-chloropyridin-2-yl)piperazin-1-yl]-1-(2-phenyl-2,4,6,7-tetrahydropyrazolo[4,3-c]pyridin-5-yl)ethanone], 155 to 156 °C; under `C[C@@H]1CN(c2ccc(C(=O)O)cn2)C[C@H](C)N1CC(=O)N1CCc2nc(-c3ccccc3)[nH]c2C1` [compound 116, 6-{(3S,5R)-3,5-dimethyl-4-[2-oxo-2-(2-phenyl-3,4,6,7-tetrahydroimidazo[4,5-c]pyridin-5-yl)ethyl]piperazin-1-yl}nicotinic acid], 190 to 192 °C.
For `C[C@@H]1CN(c2ccc(C(F)(F)F)cn2)C[C@H](C)N1CC(=O)N1CCc2nn(-c3ccccn3)cc2C1` [compound 118, 2-[(2S,6R)-2,6-dimethyl-4-(5-trifluoromethylpyridin-2-yl)piperazin-1-yl]-1-(2-pyridin-2-yl-2,4,6,7-tetrahydropyrazolo[4,3-c]pyridin-5-yl)ethanone], the melting point lay within 165 to 166 °C.
Still for that read-out and setting: with `O=C(CN1CCN(c2ccc(C(F)(F)F)cn2)C(=O)C1)N1CCc2nn(-c3ccccn3)cc2C1` [compound 119, 4-[2-oxo-2-(2-pyridin-2-yl-2,4,6,7-tetrahydropyrazolo[4,3-c]pyridin-5-yl)ethyl]-1-(5-trifluoromethylpyridin-2-yl)piperazin-2-one] the figure was 139 to 140 °C; with `O=C(CN1CCN(c2ccc(C(F)(F)F)cn2)C(=O)C1)N1CCc2nc(-c3ccc(F)cc3)[nH]c2C1` [compound 120, 4-{2-[2-(4-fluorophenyl)-3,4,6,7-tetrahydroimidazo[4,5-c]pyridin-5-yl]-2-oxoethyl}-1-(5-trifluoromethylpyridin-2-yl)piperazin-2-one], 190 to 192 °C; with `C[C@@H]1CN(c2ccc(C(F)(F)F)cn2)C[C@H](C)N1CC(=O)N1CCc2nc(-c3ccc(F)cc3)[nH]c2C1` [compound 124, 2-[(2S,6R)-2,6-dimethyl-4-(5-trifluoromethylpyridin-2-yl)piperazin-1-yl]-1-[2-(4-fluorophenyl)-3,4,6,7-tetrahydroimidazo[4,5-c]pyridin-5-yl]ethanone], 145 to 147 °C.
On the same count and under the same terms, with `O=C(CN1CC2CC1CN2c1ccc(C(F)(F)F)cn1)N1CCc2nn(-c3ccccc3)cc2C1` (stereo not drawn) [compound 127, 1-(2-phenyl-2,4,6,7-tetrahydropyrazolo[4,3-c]pyridin-5-yl)-2-[5-(5-trifluoromethylpyridin-2-yl)-2,5-diazabicyclo[2.2.1]hept-2-yl]ethanone] the figure was 174 to 175 °C.
Same read-out and setting: with `C[C@@H]1CN(c2ccc3ccccc3n2)C[C@H](C)N1CC(=O)N1CCc2nn(-c3ccccc3)cc2C1` [compound 129, 2-((2S,6R)-2,6-dimethyl-4-quinolin-2-ylpiperazin-1-yl)-1-(2-phenyl-2,4,6,7-tetrahydropyrazolo[4,3-c]pyridin-5-yl)ethanone] the figure was 203 to 204 °C; with `C[C@@H]1CN(c2ccc(S(C)(=O)=O)cn2)C[C@H](C)N1CC(=O)N1CCc2nn(-c3ccccc3)cc2C1` [compound 131, 2-[(2S,6R)-4-(5-methanesulphonylpyridin-2-yl)-2,6-dimethylpiperazin-1-yl]-1-(2-phenyl-2,4,6,7-tetrahydropyrazolo[4,3-c]pyridin-5-yl)ethanone], 103 to 105 °C; with `COc1ccc(-c2nc3c(s2)CN(C(=O)CN2[C@H](C)CN(c4ncc(F)cn4)C[C@@H]2C)CC3)cc1` [compound 132, 2-[(2S,6R)-4-(5-fluoropyrimidin-2-yl)-2,6-dimethylpiperazin-1-yl]-1-[2-(4-methoxyphenyl)-6,7-dihydro-4H-thiazolo[5,4-c]pyridin-5-yl]ethanone], 159 to 161 °C.
`COc1ccc(-c2nc3c(s2)CN(C(=O)CN2CC4CC2CN4c2ccc(C(F)(F)F)cn2)CC3)cc1` (stereo not drawn) [compound 133, 1-[2-(4-methoxyphenyl)-6,7-dihydro-4H-thiazolo[5,4-c]pyridin-5-yl]-2-[5-(5-trifluoromethylpyridin-2-yl)-2,5-diazabicyclo[2.2.1]hept-2-yl]ethanone] showed a melting point of 70 to 73 °C.
The same measure, in the same setting: under `O=C(CN1CCN(c2ccc(-c3ccn[nH]3)cn2)CC1)N1CCc2nc(-c3ccccc3)sc2C1` [compound 134, 1-(2-phenyl-6,7-dihydro-4H-thiazolo[5,4-c]pyridin-5-yl)-2-{4-[5-(2H-pyrazol-3-yl)pyridin-2-yl]piperazin-1-yl}ethanone] stands 231 to 237 °C; under `C[C@@H]1CN(c2ccc(-c3nccs3)cn2)C[C@H](C)N1CC(=O)N1CCc2nn(-c3ccccc3)cc2C1` [compound 135, 2-[(2S,6R)-2,6-dimethyl-4-(5-thiazol-2-ylpyridin-2-yl)piperazin-1-yl]-1-(2-phenyl-2,4,6,7-tetrahydropyrazolo[4,3-c]pyridin-5-yl)ethanone], 173 to 174 °C; under `C[C@@H]1CN(c2ccc(C(=O)O)cn2)C[C@H](C)N1CC(=O)N1CCc2nn(-c3ccccn3)cc2C1` [compound 140, 6-{(3S,5R)-3,5-dimethyl-4-[2-oxo-2-(2-pyridin-2-yl-2,4,6,7-tetrahydropyrazolo[4,3-c]pyridin-5-yl)ethyl]piperazin-1-yl}nicotinic acid], 147 to 150 °C.
Turning to `C[C@@H]1CN(c2cccnc2)C[C@H](C)N1CC(=O)N1CCc2nn(-c3ccncc3)cc2C1` [compound 141, 2-((2S,6R)-2,6-dimethyl-4-pyridin-3-ylpiperazin-1-yl)-1-(2-pyridin-4-yl-2,4,6,7-tetrahydropyrazolo[4,3-c]pyridin-5-yl)ethanone], the melting point lay in the range of 163 to 164 °C.
Regarding `C[C@@H]1CN(c2cccnc2)C[C@H](C)N1CC(=O)N1CCc2nn(-c3ccc(F)cn3)cc2C1` [compound 142, 2-((2S,6R)-2,6-dimethyl-4-pyridin-3-ylpiperazin-1-yl)-1-[2-(5-fluoropyridin-2-yl)-2,4,6,7-tetrahydropyrazolo[4,3-c]pyridin-5-yl]ethanone], the melting point fell in the range of 180 to 181 °C.
Same read-out and setting: with `C[C@@H]1CN(c2cccnc2)C[C@H](C)N1CC(=O)N1CCc2nn(-c3ccc(C(F)(F)F)cn3)cc2C1` [compound 143, 2-((2S,6R)-2,6-dimethyl-4-pyridin-3-ylpiperazin-1-yl)-1-[2-(5-trifluoromethylpyridin-2-yl)-2,4,6,7-tetrahydropyrazolo[4,3-c]pyridin-5-yl]ethanone] the figure was 196 to 197 °C; with `C[C@@H]1CN(c2cccnc2)C[C@H](C)N1CC(=O)N1CCc2nc(-c3ccccc3)[nH]c2C1` [compound 145, 2-((2S,6R)-2,6-dimethyl-4-pyridin-3-ylpiperazin-1-yl)-1-(2-phenyl-3,4,6,7-tetrahydroimidazo[4,5-c]pyridin-5-yl)ethanone], 207 to 209 °C; with `CCn1cc2c(n1)CCN(C(=O)CN1CCN(c3ccc(C(F)(F)F)cn3)C(=O)C1)C2` [compound 148, 4-[2-(2-ethyl-2,4,6,7-tetrahydropyrazolo[4,3-c]pyridin-5-yl)-2-oxoethyl]-1-(5-trifluoromethylpyridin-2-yl)piperazin-2-one], 151 to 152 °C.
In turn, `C[C@@H]1CN(c2ccc(C(=O)O)cn2)C[C@H](C)N1CC(=O)N1CCc2nn(-c3ccccc3)cc2C1` [compound 149, 6-{(3S,5R)-3,5-dimethyl-4-[2-oxo-2-(2-phenyl-2,4,6,7-tetrahydropyrazolo[4,3-c]pyridin-5-yl)ethyl]piperazin-1-yl}nicotinic acid] came in with a melting point of 208 to 209 °C.
